In patent US6967215B2, “Tetrahydrocarbazoles, a process for the preparation of those compounds, and the use thereof” (Ciba Specialty Chemicals Corporation, priority 2000, dated 2005):

How the values were obtained:
Assay in all cases: MIC, microtitre dilution test (growth by optical density at 620 nm)
[1] = test system: Escherichia coli NCTC 8196; type: cell-based; details: Table 5
Experimental: (§1) Casein/soybean flour peptone bouillon for the preparation of pre-cultures of the test bacteria and yeast.
(§2) The test substances are predissolved in dimethyl sulfoxide (DMSO) and tested in a dilution series of 1:2.
(§3) Bacteria and yeast are cultured overnight in CASO bouillon, the mould is cultured overnight on mycological slant agar, and washed off with 10 ml of 0.85% sodium chloride solution (+0.1% TritonX-100).
(§4) All the test organisms are adjusted to an organism count of 1-5×10^6 CFU/ml using 0.85% sodium chloride solution.
(§5) The test substances are pre-pipetted into microtitre plates in an amount of 8 μl per well.
(§6) Pre-diluted organism suspensions are diluted 1:100 in CASO bouillon (bacteria and yeast) or Sabouraud 2% glucose bouillon (mould) and are added in an amount of 192 μl per well to the test substances.
(§7) The test batches are incubated for 48 hours at 37° C. (bacteria and yeast) or for 5 days at 28° C. (mould).
(§8) After incubation, the growth is evaluated by reference to the turbidity of the test batches (optical density) at 620 nm in a microplate reader.
(§9) The minimum inhibitory concentration (MIC value) is the concentration of substance at which (compared with the growth of the control) an appreciable inhibition of growth (≦20% growth) of the test organisms is ascertained.
(§10) One microtitre plate is used for each test organism and substance concentration. All the substances are tested in duplicate.

[2] = test system: Staphylococcus hominis DMS 20328; type: cell-based; details: for MIC [ppm] S. hominis: Table 5
Experimental: as §1, §2, §3, §4, §5, §6, §7, §8, §9, §10

[3] = test system: P. aeruginosa; type: cell-based; details: Table 5
Experimental: (§11) All the test organisms are adjusted to an organism count of 1-5×10^6 CFU/ml using 0.85% sodium chloride solution. The test substances are pre-pipetted into microtitre plates in an amount of 8 μl per well. Pre-diluted organism suspensions are diluted 1:100 in CASO bouillon (bacteria and yeast) or Sabouraud 2% glucose bouillon (mould) and are added in an amount of 192 μl per well to the test substances. The test batches are incubated for 48 hours at 37° C. (bacteria and yeast) or for 5 days at 28° C. (mould). After incubation, the growth is evaluated by reference to the turbidity of the test batches (optical density) at 620 nm in a microplate reader. The minimum inhibitory concentration (MIC value) is the concentration of substance at which (compared with the growth of the control) an appreciable inhibition of growth (≦20% growth) of the test organisms is ascertained. One microtitre plate is used for each test organism and substance concentration. All the substances are tested in duplicate.

[4] = test system: Aspergillus niger ATCC 6175; type: cell-based; details: for MIC [ppm] A. niger: Table 5
Experimental: (§12) Nutrient: Mycological slant agar for the pre-culture of moulds [table] The test substances are predissolved in dimethyl sulfoxide (DMSO) and tested in a dilution series of 1:2. Bacteria and yeast are cultured overnight in CASO bouillon, the mould is cultured overnight on mycological slant agar, and washed off with 10 ml of 0.85% sodium chloride solution (+0.1% TritonX-100). All the test organisms are adjusted to an organism count of 1-5×10^6 CFU/ml using 0.85% sodium chloride solution. The test substances are pre-pipetted into microtitre plates in an amount of 8 μl per well. Pre-diluted organism suspensions are diluted 1:100 in CASO bouillon (bacteria and yeast) or Sabouraud 2% glucose bouillon (mould) and are added in an amount of 192 μl per well to the test substances. The test batches are incubated for 48 hours at 37° C. (bacteria and yeast) or for 5 days at 28° C. (mould). After incubation, the growth is evaluated by reference to the turbidity of the test batches (optical density) at 620 nm in a microplate reader. The minimum inhibitory concentration (MIC value) is the concentration of substance at which (compared with the growth of the control) an appreciable inhibition of growth (≦20% growth) of the test organisms is ascertained. One microtitre plate is used for each test organism and substance concentration. All the substances are tested in duplicate.

[5] = test system: Streptococcus mutans ATCC 25175; type: cell-based; details: Table 4
Experimental: as §1, §2, §3, §4, §5, §6, §7, §8, §9, §10

[6] = test system: Staphylococcus aureus (methicillin-resistant) NCTC 12493; type: cell-based; details: Table 4
Experimental: as §1, §2, §3, §4, §5, §6, §7, §8, §9, §10

[7] = test system: Corynebacterium xerosis ATCC 373; type: cell-based
Experimental: as §1, §2, §3, §4, §5, §6, §7, §8, §9, §10

[8] = test system: Staphylococcus aureus (methicillin-resistant) NCTC 11940; type: cell-based; details: Table 4
Experimental: as §1, §2, §3, §4, §5, §6, §7, §8, §9, §10

[9] = test system: Porphyromonas gingivalis DSM 20709; type: cell-based; details: Table 4
Experimental: as §1, §2, §3, §4, §5, §6, §7, §8, §9, §10

[10] = test system: Propionibacterium acnes ATCC 25746; type: cell-based; details: Table 4
Experimental: as §1, §2, §3, §4, §5, §6, §7, §8, §9, §10

[11] = test system: P. ovale ATCC 14521; type: cell-based; details: Table 4
Experimental: as §1, §2, §3, §4, §5, §6, §7, §8, §9, §10

[12] = test system: Staphylococcus aureus (rifampicin-resistant) NCTC 10703; type: cell-based; details: Table 4
Experimental: as §1, §2, §3, §4, §5, §6, §7, §8, §9, §10

[13] = test system: Actinomyces viscosus DSM 43329; type: cell-based; details: Table 4
Experimental: as §1, §2, §3, §4, §5, §6, §7, §8, §9, §10

[14] = test system: Micrococcus luteus ATCC 9341; type: cell-based
Experimental: as §1, §2, §3, §4, §5, §6, §7, §8, §9, §10

[15] = test system: Candida albicans ATCC 10259; type: cell-based
Experimental: as §1, §2, §3, §4, §5, §6, §7, §8, §9, §10

[16] = test system: Selenomonas artemidis ATCC 43528; type: cell-based; details: Table 4
Experimental: as §1, §2, §3, §4, §5, §6, §7, §8, §9, §10

[17] = test system: Staphylococcus aureus (penicillin-resistant) NCTC 10443; type: cell-based; details: Table 4
Experimental: as §1, §2, §3, §4, §5, §6, §7, §8, §9, §10

[18] = test system: Enterococcus hirae ATCC 10541; type: cell-based
Experimental: as §1, §2, §3, §4, §5, §6, §7, §8, §9, §10

[19] = test system: Staphylococcus epidermidis ATCC 12228; type: cell-based; details: for MIC Staphylococcus epidermidis ATCC 12228: Table 3
Experimental: as §1, §2, §3, §4, §5, §6, §7, §8, §9, §10

[20] = test system: Streptococcus sobrinus DSM 20742; type: cell-based; details: Table 4
Experimental: as §1, §2, §3, §4, §5, §6, §7, §8, §9, §10

[21] = test system: Staphylococus aureus ATCC 9144; type: cell-based, Staphylococcus aureus; details: Table 4
Experimental: as §11

[22] = test system: Tr. mentagrophytes ATCC 9533; type: cell-based; details: Table 4
Experimental: as §12

[23] = test system: Trichophyton rubrum DSM 4167; type: cell-based; details: Table 4
Experimental: as §12

[24] = test system: Epidermophyton floccosum DSM 10709; type: cell-based; details: Table 4
Experimental: as §12

[25] = test system: Trichoderma longibrachiatum DSM 768; type: cell-based; details: Table 4
Experimental: as §12

Question: For `CCCN1CCC2c3c([nH]c4cccc(F)c34)C3C(=O)NC(=O)C3C2C1` (stereo not shown) [Compound 226], which “MIC [ppm] E. coil” value [1] is on record?
Answer: 120 ppm

Question: What about the “MIC [ppm] S. hominis” value [2] of the same compound?
Answer: 120 ppm

Question: And the “MIC [ppm] P. aeruginosa” value [3]?
Answer: >120 ppm

Question: And the “MIC [ppm] A. niger” value [4]?
Answer: >120 ppm

Question: With `CCCN1CCC2c3c([nH]c4c(OC)cccc34)C3C(=O)NC(=O)C3C2C1` (stereo not shown) [Compound 229] as the compound, how does the “MIC [ppm] E. coil” value [1] read?
Answer: >120 ppm

Question: What about the “MIC [ppm] S. hominis” value [2] of the same compound?
Answer: >120 ppm

Question: What about the “MIC [ppm] P. aeruginosa” value [3] of the same compound?
Answer: >120 ppm

Question: And the “MIC [ppm] A. niger” value [4]?
Answer: >120 ppm

Question: For `CCCN1CCC2c3c([nH]c4cc(OC)ccc34)C3C(=O)NC(=O)C3C2C1` (stereo not shown) [Compound 231], which “MIC [ppm] E. coil” value [1] is on record?
Answer: >120 ppm

Question: And the “MIC [ppm] S. hominis” value [2]?
Answer: 120 ppm

Question: And the “MIC [ppm] P. aeruginosa” value [3]?
Answer: 120 ppm

Question: What about the “MIC [ppm] A. niger” value [4] of the same compound?
Answer: >120 ppm

Question: Which results are given for `CCCN1CCC2c3c([nH]c4ccc(C(=O)OC)cc34)C3C(=O)NC(=O)C3C2C1` (stereo not shown) [Compound 235]?
Answer: MIC [ppm] E. coil [1]: >120 ppm; MIC [ppm] S. hominis [2]: 120 ppm; MIC [ppm] P. aeruginosa [3]: >120 ppm; MIC [ppm] A. niger [4]: >120 ppm

Question: With `CCCN1CCC2c3c([nH]c4cc(OC)c(OC)cc34)C3C(=O)NC(=O)C3C2C1` (stereo not shown) [Compound 238] as the compound, how does the “MIC [ppm] E. coil” value [1] read?
Answer: >120 ppm

Question: And the “MIC [ppm] S. hominis” value [2]?
Answer: >120 ppm

Question: What about the “MIC [ppm] P. aeruginosa” value [3] of the same compound?
Answer: >120 ppm

Question: And the “MIC [ppm] A. niger” value [4]?
Answer: >120 ppm

Question: With `O=C1NC(=O)C2C1c1[nH]c3ccc(Br)cc3c1C1CCCCCC12` (stereo not shown) [compound 32] as the compound, how does the “MIC Streptococcus mutans ATCC 25175” value [5] read?
Answer: 5.0 ppm

Question: What about the “MIC Staphylococcus aureus (methicillin-resistant) NCTC 12493” value [6] of the same compound?
Answer: 5.0 ppm

Question: What about the “MIC Corynebacterium xerosis ATCC 373” value ([7]; Table 4) of the same compound?
Answer: 5.0 ppm

Question: And the “MIC Staphylococcus aureus (methicillin-resistant) NCTC 11940” value [8]?
Answer: 5.0 ppm

Question: What about the “MIC Porphyromonas gingivalis DSM 20709” value [9] of the same compound?
Answer: 3.125 ppm

Question: What about the “MIC Propionibacterium acnes ATCC 25746” value [10] of the same compound?
Answer: 6.25 ppm

Question: What about the “MIC P. ovale ATCC 14521” value [11] of the same compound?
Answer: >10 ppm

Question: What about the “MIC Staphylococcus aureus (rifampicin-resistant) NCTC 10703” value [12] of the same compound?
Answer: 5.0 ppm

Question: And the “MIC Actinomyces viscosus DSM 43329” value [13]?
Answer: 6.25 ppm

Question: What about the “MIC Micrococcus luteus ATCC 9341” value ([14]; Table 4) of the same compound?
Answer: 5.0 ppm

Question: And the “MIC Candida albicans ATCC 10259” value ([15]; Table 4)?
Answer: >10 ppm

Question: What about the “MIC Selenomonas artemidis ATCC 43528” value [16] of the same compound?
Answer: 50.0 ppm

Question: And the “MIC Staphylococcus aureus (penicillin-resistant) NCTC 10443” value [17]?
Answer: 5.0 ppm

Question: What about the “MIC Enterococcus hirae ATCC 10541” value ([18]; Table 4) of the same compound?
Answer: >10 ppm

Question: And the “MIC Staphylococcus hominis DSM 20328” value ([2]; Table 4)?
Answer: 5.0 ppm

Question: And the “MIC S. epidermidis ATCC 12228” value ([19]; Table 4)?
Answer: 10 ppm

Question: And the “MIC Streptococcus sobrinus DSM 20742” value [20]?
Answer: 6.25 ppm

Question: And the “MIC Staphylococus aureus ATCC 9144” value [21]?
Answer: 5.0 ppm

Question: And the “MIC Tr. mentagrophytes ATCC 9533” value [22]?
Answer: 10 ppm

Question: What about the “MIC Trichophyton rubrum DSM 4167” value [23] of the same compound?
Answer: 10 ppm

Question: What about the “MIC Aspergillus niger ATCC 6175” value ([4]; Table 4) of the same compound?
Answer: >10 ppm

Question: And the “MIC Epidermophyton floccosum DSM 10709” value [24]?
Answer: 5.0 ppm

Question: What about the “MIC Trichoderma longibrachiatum DSM 768” value [25] of the same compound?
Answer: >10 ppm

Question: `CC1(C)CC2c3c([nH]c4ccccc34)C3C(=O)NC(=O)C3C2C(C)(C)C1` (stereo not shown) [compound 63] was tested. Which “MIC Corynebacterium xerosis ATCC 373” value ([7]; Table 3) did it give?
Answer: ≦3.75 ppm

Question: What about the “MIC Micrococcus luteus ATCC 9341” value ([14]; Table 3) of the same compound?
Answer: ≦3.75 ppm

Question: And the “MIC Candida albicans ATCC 10259” value ([15]; Table 3)?
Answer: >120 ppm

Question: And the “MIC Enterococcus hirae ATCC 10541” value ([18]; Table 3)?
Answer: 7.5 ppm

Question: What about the “MIC Staphylococcus hominis DSM 20328” value ([2]; Table 3) of the same compound?
Answer: 7.5 ppm

Question: What about the “MIC Staphylococcus epidermidis ATCC 12228” value [19] of the same compound?
Answer: ≦3.75 ppm

Question: `CCc1cccc2c3c([nH]c12)C1C(=O)NC(=O)C1C1CCCCCCC31` (stereo not shown) [compound 89] was tested. Which “MIC Corynebacterium xerosis ATCC 373” value ([7]; Table 3) did it give?
Answer: ≦3.75 ppm

Question: What about the “MIC Micrococcus luteus ATCC 9341” value ([14]; Table 3) of the same compound?
Answer: ≦3.75 ppm

Question: What about the “MIC Candida albicans ATCC 10259” value ([15]; Table 3) of the same compound?
Answer: >120 ppm

Question: What about the “MIC Enterococcus hirae ATCC 10541” value ([18]; Table 3) of the same compound?
Answer: >120 ppm

Question: And the “MIC Staphylococcus hominis DSM 20328” value ([2]; Table 3)?
Answer: 7.5 ppm

Question: What about the “MIC Staphylococcus epidermidis ATCC 12228” value [19] of the same compound?
Answer: ≦3.75 ppm
